Experiment [1] has as its system HEK293sieSTAT3(Y640F). As to the kind of experiment: drug sensitivity score (DSS), cytotoxicity CellTox Green (DSS (dimensionless)); higher = more cytotoxic; extreme values may be limits of the assay. Conditions: 72 h; STAT3 variant: Y640F (constitutively active). The gist of the method:
(§1)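 HEK293 cells carrying a STAT3-dependent luciferase reporter and overexpressing wild-type or mutant STAT3 (20 μl at 100,000 cells/ml) were added to compounds acoustically pre-plated at 5 concentrations in 10-fold dilutions in 384-well plates. After 72 hours at 37°C and 5% CO2, CellTox Green fluorescence (485/520 nm) and then CellTiter-Glo luminescence were read on a PHERAstar FS. Values were normalised to negative and positive control wells, and a drug sensitivity score based on dose-response curve area was computed in Breeze. Each value comes from one representative of two experiments.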

Experiment [2] has as its system HEK293sieSTAT3(wt). Described as above. The settings on record: 72 h; STAT3 variant: wild type. In short, it runs like this: as §1
Experiment [3] relates to HEK293sieSTAT3(Y640F). The experiment can be described thus: drug sensitivity score (DSS), viability CellTiter-Glo (DSS (dimensionless)); higher = more growth inhibition; extreme values may be limits of the assay. The settings on record: 72 h; STAT3 variant: Y640F (constitutively active). In short, it runs like this: as §1
The test system of experiment [4] is HEK293sieSTAT3(wt). Described as above. Conditions: 72 h; STAT3 variant: wild type. In short, it runs like this:
as §1

Turning to `CC(C)N(C[C@H]1O[C@@H](n2cnc3c(N)ncnc32)[C@H](O)[C@@H]1O)[C@H]1C[C@@H](CCc2nc3cc(C(C)(C)C)ccc3[nH]2)C1` [Pinometostat] (top concentration tested 1000 nM), the drug sensitivity score worked out at 0.46 in the experiment with HEK293sieSTAT3(Y640F) [1], 0 with HEK293sieSTAT3(wt) [2], 0.69 in the experiment on HEK293sieSTAT3(Y640F) [3] and 0 in the experiment with HEK293sieSTAT3(wt) [4].

Consider `COc1ccc(C2=N[C@@H](c3ccc(Cl)cc3)[C@@H](c3ccc(Cl)cc3)N2C(=O)N2CCNC(=O)C2)c(OC(C)C)c1` [Nutlin-3] (top concentration tested 10000 nM), for which the drug sensitivity score stood at 0.07 in the experiment with HEK293sieSTAT3(Y640F) [1], 0.87 in the experiment with HEK293sieSTAT3(wt) [2], 1.89 in the experiment on HEK293sieSTAT3(Y640F) [3] and 1.15 in the experiment with HEK293sieSTAT3(wt) [4].

Consider `CCNc1nc(Nc2cc(F)c(C(=O)N3CCOCC3)cc2OC)ncc1C(F)(F)F` [GNE-7915] (top concentration tested 1000 nM), for which the drug sensitivity score stood at 0 in the experiment with HEK293sieSTAT3(Y640F) [1], 0 in the experiment with HEK293sieSTAT3(wt) [2], 4.87 in the experiment with HEK293sieSTAT3(Y640F) [3] and 2.71 in the experiment on HEK293sieSTAT3(wt) [4].

As to `O=C(c1ccc(F)c(F)c1Nc1ccc(I)cc1F)N1CC(O)([C@@H]2CCCCN2)C1` [Cobimetinib] (top concentration tested 1000 nM), the drug sensitivity score was determined as 0 in the experiment on HEK293sieSTAT3(Y640F) [1], 0 in the experiment with HEK293sieSTAT3(wt) [2], 3.13 with HEK293sieSTAT3(Y640F) [3] and 3.78 in the experiment with HEK293sieSTAT3(wt) [4].

For `CC(=O)c1cnc2ccc(-c3cc(Cl)c(O)c(Cl)c3)nc2c1N[C@H]1CC[C@H](CN(C)C)CC1` [OTSSP167] (top concentration tested 1000 nM), the drug sensitivity score in the experiment with HEK293sieSTAT3(Y640F) [1] is 5.22; in the experiment on HEK293sieSTAT3(wt) [2], 5.73; in the experiment on HEK293sieSTAT3(Y640F) [3], 21.1; with HEK293sieSTAT3(wt) [4], 21.2.

Turning to `NC(=O)Nc1sc(-c2ccc(F)cc2)cc1C(N)=O` [TPCA-1] (top concentration tested 25000 nM), the drug sensitivity score was found to be 0.96 in the experiment with HEK293sieSTAT3(Y640F) [1], 5.56 with HEK293sieSTAT3(wt) [2], 5.84 in the experiment on HEK293sieSTAT3(Y640F) [3] and 7.61 in the experiment with HEK293sieSTAT3(wt) [4].

Turning to `COc1ccc(Cl)c(Nc2nc3ccccc3nc2NS(=O)(=O)c2cccc(NC(=O)C(C)(C)N)c2)c1` [Pilaralisib] (top concentration tested 2500 nM), the drug sensitivity score is 0 with HEK293sieSTAT3(Y640F) [1], 0 in the experiment on HEK293sieSTAT3(wt) [2], 6.22 with HEK293sieSTAT3(Y640F) [3] and 3.92 with HEK293sieSTAT3(wt) [4].

Regarding `O=C(Nc1nc2cccc(-c3ccc(CN4CCS(=O)(=O)CC4)cc3)n2n1)C1CC1` [Filgotinib] (top concentration tested 10000 nM), the drug sensitivity score turned out to be 5.91 in the experiment on HEK293sieSTAT3(Y640F) [1], 6.22 with HEK293sieSTAT3(wt) [2], 8.86 in the experiment on HEK293sieSTAT3(Y640F) [3] and 6.84 with HEK293sieSTAT3(wt) [4].

For `O=C1NC(=O)[C@@H](c2cn3c4c(cccc24)CCC3)[C@@H]1c1c[nH]c2ccccc12` [Tivantinib] (top concentration tested 1000 nM), the drug sensitivity score with HEK293sieSTAT3(Y640F) [1] turned out to be 0; in the experiment with HEK293sieSTAT3(wt) [2] it was 0.63; in the experiment with HEK293sieSTAT3(Y640F) [3] it was 2.71; with HEK293sieSTAT3(wt) [4] it was 2.4.

Turning to `O=C(O)c1ccc(Nc2ncc3c(n2)-c2ccc(Cl)cc2C(c2c(F)cccc2F)=NC3)cc1` [MLN-8054] (top concentration tested 10000 nM), the drug sensitivity score came to 0 with HEK293sieSTAT3(Y640F) [1], 2.73 in the experiment with HEK293sieSTAT3(wt) [2], 6.2 in the experiment with HEK293sieSTAT3(Y640F) [3] and 11 in the experiment with HEK293sieSTAT3(wt) [4].

Regarding `C[C@@H](Oc1ccc2[nH]nc(/C=C/c3cnn(CCO)c3)c2c1)c1c(Cl)cncc1Cl` (top concentration tested 1000 nM), the drug sensitivity score with HEK293sieSTAT3(Y640F) [1] stood at 0; in the experiment on HEK293sieSTAT3(wt) [2] it was 0; in the experiment with HEK293sieSTAT3(Y640F) [3] it was 6.64; in the experiment on HEK293sieSTAT3(wt) [4], 5.39.

In the case of `CO[C@H]1C[C@@H]2CC[C@@H](C)[C@@](O)(O2)C(=O)C(=O)N2CCCC[C@H]2C(=O)O[C@H]([C@H](C)C[C@@H]2CC[C@@H](OCCO)[C@H](OC)C2)CC(=O)[C@H](C)/C=C(\C)[C@@H](O)[C@@H](OC)C(=O)[C@H](C)C[C@H](C)/C=C/C=C/C=C/1C` [Everolimus] (top concentration tested 100 nM), the drug sensitivity score in the experiment with HEK293sieSTAT3(Y640F) [1] stood at 0; with HEK293sieSTAT3(wt) [2], 0; in the experiment with HEK293sieSTAT3(Y640F) [3], 8.23; in the experiment with HEK293sieSTAT3(wt) [4] it was 11.3.

Turning to `c1ccc([C@H]2CN3CCSC3=N2)cc1` [Levamisole] (top concentration tested 10000 nM), the drug sensitivity score in the experiment with HEK293sieSTAT3(Y640F) [1], in the experiment with HEK293sieSTAT3(wt) [2], in the experiment with HEK293sieSTAT3(Y640F) [3] and in the experiment on HEK293sieSTAT3(wt) [4] was 0 throughout.

Turning to `NC(=O)c1cccc(-c2cccc(OC(=O)NC3CCCCC3)c2)c1` [URB597] (top concentration tested 1000 nM), the drug sensitivity score in the experiment on HEK293sieSTAT3(Y640F) [1] worked out at 0; with HEK293sieSTAT3(wt) [2] it was 0; with HEK293sieSTAT3(Y640F) [3] it was 0.03; with HEK293sieSTAT3(wt) [4], 0.37.

Turning to `NC(=O)Nc1cc(-c2cccc(F)c2)sc1C(=O)N[C@H]1CCCNC1` [AZD7762] (top concentration tested 1000 nM), the drug sensitivity score in the experiment with HEK293sieSTAT3(Y640F) [1] amounted to 4.24; in the experiment on HEK293sieSTAT3(wt) [2], 7.16; in the experiment with HEK293sieSTAT3(Y640F) [3] it was 14.9; with HEK293sieSTAT3(wt) [4], 16.8.

In the case of `CC1(C)CNc2cc(NC(=O)c3cccnc3NCc3ccncc3)ccc21` [Motesanib] (top concentration tested 10000 nM), the drug sensitivity score turned out to be 0.35 with HEK293sieSTAT3(Y640F) [1], 0.6 in the experiment with HEK293sieSTAT3(wt) [2], 2.6 with HEK293sieSTAT3(Y640F) [3] and 1.53 in the experiment on HEK293sieSTAT3(wt) [4].

On to `Cc1ccc(C(=O)Nc2ccc(CN3CCN(C)CC3)c(C(F)(F)F)c2)cc1C#Cc1cnc2cccnn12` [Ponatinib] (top concentration tested 1000 nM), for which the drug sensitivity score with HEK293sieSTAT3(Y640F) [3] was determined as 6.74; in the experiment with HEK293sieSTAT3(wt) [4], 9.83.

For the compound `CCC(C)(C)C(=O)O[C@H]1C[C@@H](C)C=C2C=C[C@H](C)[C@H](CC[C@@H]3C[C@@H](O)CC(=O)O3)[C@H]21` [Simvastatin] (top concentration tested 10000 nM), the values for the drug sensitivity score with HEK293sieSTAT3(Y640F) [3] and in the experiment on HEK293sieSTAT3(wt) [4] were 0.89 and 3.28, respectively.
